In test [1] the target is Dual specificity protein kinase CLK3 (Homo sapiens, UniProt P49761). Put plainly: Inhibition of CLK3 (unknown origin) by ADP-Glo assay.
The target in test [2] is T1, Dual specificity protein kinase CLK1 (Homo sapiens, UniProt P49759). Put plainly: Inhibition of CLK in human NCI-H1299 cells assessed as downregulation of SRSF6 phosphorylation at 0.1 to 1 uM incubated for 1 hr by Western blotting analysis. Type of test: cell-based. The following applies: dose 0.1-1 µM. A general note: Immunoblotting shows a protein as a band on a membrane.
T1 sequence (P49759 whole entry, looked up): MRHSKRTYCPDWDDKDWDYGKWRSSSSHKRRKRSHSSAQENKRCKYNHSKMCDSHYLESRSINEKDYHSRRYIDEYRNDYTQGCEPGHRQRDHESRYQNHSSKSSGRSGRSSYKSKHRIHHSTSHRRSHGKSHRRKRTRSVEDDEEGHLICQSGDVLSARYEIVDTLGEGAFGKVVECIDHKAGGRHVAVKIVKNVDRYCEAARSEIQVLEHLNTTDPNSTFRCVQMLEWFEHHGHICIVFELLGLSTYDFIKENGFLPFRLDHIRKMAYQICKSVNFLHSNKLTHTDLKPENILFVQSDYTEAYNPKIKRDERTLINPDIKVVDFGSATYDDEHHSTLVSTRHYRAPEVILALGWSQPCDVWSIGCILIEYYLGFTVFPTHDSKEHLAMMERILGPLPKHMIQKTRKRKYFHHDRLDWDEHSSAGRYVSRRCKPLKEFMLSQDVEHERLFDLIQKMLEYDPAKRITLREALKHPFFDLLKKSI

The target of test [3] is T1, Dual specificity protein kinase CLK1. Briefly: Inhibition of CLK1 (unknown origin) at 100 nM by ADP-Glo assay relative to control.
Test [4] concerns NCI-H1299. Briefly: Induction of apoptosis in human NCI-H1299 cells assessed as viable cells at 1 uM incubated for 24 hrs by annexin V-FITC/PI staining based flow cytometric analysis (reference value: 95 %). Type of test: functional. As to conditions: read-out: Activity. In general terms: A flow cytometer gives signals particle by particle.
Test [5] relates to NCI-H1299. Put plainly: Induction of apoptosis in human NCI-H1299 cells assessed as early apoptotic cells at 0.1 uM incubated for 24 hrs by annexin V-FITC/PI staining based flow cytometric analysis (reference value: 0.49 %). Type of test: functional.
In test [6] the test system is NCI-H1299. Put plainly: Induction of apoptosis in human NCI-H1299 cells assessed as early apoptotic cells at 0.25 uM incubated for 24 hrs by annexin V-FITC/PI staining based flow cytometric analysis (reference value: 0.49 %). The class given is functional.
In test [7] the test system is NCI-H1299. Put plainly: Induction of apoptosis in human NCI-H1299 cells assessed as late apoptotic cells at 0.1 uM incubated for 24 hrs by annexin V-FITC/PI staining based flow cytometric analysis (reference value: 2.23 %). The class given is functional.
Test [8] concerns NCI-H1299. Briefly: Induction of apoptosis in human NCI-H1299 cells assessed as late apoptotic cells at 2.5 uM incubated for 24 hrs by annexin V-FITC/PI staining based flow cytometric analysis (reference value: 2.23 %). Type of test: functional.
Test [9] concerns NCI-H1299. Put plainly: Induction of apoptosis in human NCI-H1299 cells assessed as necrotic cells at 0.25 uM incubated for 24 hrs by annexin V-FITC/PI staining based flow cytometric analysis (reference value: 2.28 %). Type of test: functional.
In test [10] the test system is NCI-H1299. Briefly: Inhibition of Wnt pathway in human NCI-H1299 cells assessed as downregulation of beta-catenin phosphorylation at 0.1 to 1 uM incubated for 12 hrs by Western blotting analysis. The class given is cell-based. The following applies: dose 0.1-1 µM.
Test [11] deals with NCI-H1299. Briefly: Inhibition of Wnt pathway in human NCI-H1299 cells assessed as downregulation of Axin2 expression at 0.1 to 1 uM incubated for 48 hrs by Western blotting analysis. The class given is cell-based. As to conditions: dose 0.1-1 µM.
Test [12] concerns NCI-H1299. Briefly: Induction of apoptosis in human NCI-H1299 cells assessed as downregulation of AKT expression incubated for 12 hrs by Western blotting analysis. The class given is functional, cell-based.
The target of test [13] is Serine/threonine-protein kinase mTOR (Homo sapiens) (UniProt P42345). Briefly: Inhibition of mTOR phosphorylation in human NCI-H1299 cells at 0.1 to 1 uM incubated for 12 hrs by Western blotting analysis. Type of test: cell-based. The following applies: dose 0.1-1 µM.
Test [14] relates to NCI-H1299. Briefly: Induction of autophagy in human NCI-H1299 cells assessed as downregulation of p62 expression at 0.1 to 1 uM incubated for 48 hrs by Western blotting analysis. The class given is functional, cell-based. The following applies: dose 0.1-1 µM.
For test [15], the system named is NCI-H1299. Put plainly: Induction of autophagy in human NCI-H1299 cells assessed as effect on LC3I protein expression at 0.1 to 1 uM incubated for 48 hrs by Western blotting analysis. The following applies: dose 0.1-1 µM. Type of test: functional, cell-based.
The subject of a further test is HCC827. Put plainly: cells. As to conditions: Homo sapiens, HCC827, 48 h.
The subject of test [16] is Osimertinib-resistant NCI-H1975 cell. Put plainly: cells. The following applies: Homo sapiens, 96 h.
Description: Antiproliferative activity against human Osimertinib-resistant NCI-H1975 cell cultured as 3D spheroids assessed as inhibition of cell growth incubated for 96 hrs by CellTiter-Glo luminescence assay

The source made the active and inactive calls. The rule behind the calls is not given here.

Sequence of Dual specificity protein kinase CLK3 (P49761 whole entry): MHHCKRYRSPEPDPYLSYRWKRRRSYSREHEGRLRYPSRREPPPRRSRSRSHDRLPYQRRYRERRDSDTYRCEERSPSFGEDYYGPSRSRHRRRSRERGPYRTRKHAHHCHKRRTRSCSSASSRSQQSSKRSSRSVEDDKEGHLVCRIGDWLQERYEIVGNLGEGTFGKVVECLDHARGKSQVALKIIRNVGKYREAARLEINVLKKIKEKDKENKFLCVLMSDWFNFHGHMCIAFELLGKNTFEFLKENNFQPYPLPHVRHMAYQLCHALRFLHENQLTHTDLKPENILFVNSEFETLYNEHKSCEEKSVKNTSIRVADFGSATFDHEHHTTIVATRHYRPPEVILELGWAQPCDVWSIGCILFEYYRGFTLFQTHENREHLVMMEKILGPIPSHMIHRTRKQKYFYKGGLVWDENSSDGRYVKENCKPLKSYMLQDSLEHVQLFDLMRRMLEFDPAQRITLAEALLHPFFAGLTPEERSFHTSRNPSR
Description for HCC827: Antiproliferative activity against human HCC827 cells assessed as inhibition of cell growth incubated for 48 hrs by MTT assay

Consider `FC1(F)CCN(Cc2cncc(-c3ccc4[nH]nc(-c5nc(-c6ccco6)c(-c6ccco6)[nH]5)c4c3)c2)C1`, for which the values for the concentration for half-maximal inhibition (IC50) (in test [1]; in the test on HCC827; in [16]) were 28.7 nM, 160 nM and 238 nM, respectively. The inhibition entry in test [2] is “Active; Showed Stronger Inhibition Compared To Indazole 1”; in [3], 98.1%. In addition, the viability at 1 µM in the test with NCI-H1299 [4] is 84.3%. For the same compound, the Activity is 1.45% in the test with NCI-H1299 [5]; 3.57% in the test with NCI-H1299 [6]; 1.26% in the test on NCI-H1299 [7]; 6.71% in the test on NCI-H1299 [8]; 1.78% in the test with NCI-H1299 [9]; “Dose-dependent-effect” in the test with NCI-H1299 [12]. In addition, the inhibition result (with NCI-H1299 [10]; with NCI-H1299 [11]; in test [13]) was “Active” in each case. Moreover, the outcome in the test on NCI-H1299 [14] and with NCI-H1299 [15] was Active.

As a reminder, the IC50 is the concentration needed to halve the response being measured. The term inhibition denotes the relative decrease from the control value, in per cent.

The record behind these values is ChEMBL document CHEMBL6092179, “Discovery of CLKs inhibitors for the treatment of non-small cell lung cancer” (Eur J Med Chem, 2024).
